Measurements reported in patent US20090264650A1, “Prophylactic/Therapeutic Agent for Diabetes” (priority 2005, published 2009).

target: T1, 11βHSD1 (Homo sapiens, UniProt P28845); assay: Determination of 11βHSD1 inhibitory activity (microsome fraction, cortisone to cortisole, competitive ELISA); format: biochemical; details: microsome fraction of Reference Example 2a; 500 nM cortisone, 400 μM NADPH substrate solution; room temperature 60 min
T1 construct: made in house; host or cells: Sf-21 insect cells infected with recombinant baculovirus BAC-HHSD1 (pFASTBAC1-derived pFB-hHSD1); microsome fraction
T1 sequence (P28845 whole entry): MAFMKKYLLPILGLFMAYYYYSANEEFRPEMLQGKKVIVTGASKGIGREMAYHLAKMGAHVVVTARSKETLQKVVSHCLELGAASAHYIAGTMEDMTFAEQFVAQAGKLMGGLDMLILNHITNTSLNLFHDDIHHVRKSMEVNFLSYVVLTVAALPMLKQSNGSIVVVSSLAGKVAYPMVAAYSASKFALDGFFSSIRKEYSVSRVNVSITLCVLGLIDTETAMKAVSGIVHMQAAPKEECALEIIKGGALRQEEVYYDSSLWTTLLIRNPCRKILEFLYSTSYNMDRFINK
Procedure: The enzyme reaction was performed in a polypropylene 96-well plate (Corning). The microsome fraction obtained in Reference Example 2a was diluted with a buffer (30 mM Tris-HCl, 1 mM EDTA, 0.1% BSA, pH 7.2) to a concentration of 100 μg/ml. A solution (2.5 μl) of the test compound in dimethyl sulfoxide was added to the obtained diluted solution (22.5 μl) and the mixture was incubated at room temperature for 5 min. A substrate solution (500 nM cortisone, 400 μM NADPH) (25 μl) was added to the obtained suspension, allowed to react at room temperature for 60 min and the reaction was quenched by the addition of 2 mM 18-β-glycyrrhetinic acid (Sigma Ltd.) solution (5 μl). The produced cortisole was quantified by the following competitive ELISA.
Anti-mouse IgG antibody (Chemicon) was suspended in 100 mM sodium phosphate buffer (pH 9.0) to a concentration of 5 μg/ml. The obtained suspension (100 μl) was added to a 96-well black plate (Maxisorp, Nunc), and incubated overnight at 4° C. to immobilize a first antibody. The plate was washed with PBS containing 0.05% Tween20 (Bio-Rad), 30% block ace (Yukijirushi) ([…]) diluted with PBS was added. After blocking at room temperature for 1 hr or more, the plate was washed with PBS containing 0.05% Tween20. Anti-cortisole antibody (assay design) (100 μl) diluted 4-fold with a buffer (30 mM Tris-HCl, 1 mM EDTA, pH 7.2) was added to the plate, and the plate was incubated at room temperature for 90 min. The plate was washed 4 times with PBS containing 0.05% Tween20, the enzyme reaction mixture (25 μl) and alkaline phosphatase conjugated cortisole (assay design) (25 μl) were added, and the plate was incubated at room temperature for 120 min. The plate was washed 4 times with PBS containing 0.05% Tween20, a luminescence substrate for alkaline phosphatase, Immun star (Enhancer plus, Bio-Rad) (50 μl) was added. The plate was incubated at room temperature for 10 min and the level of luminescence was measured by Arvo malfi label counter (Wallac). The concentration (IC50 value) of the test compound necessary for inhibiting the 11βHSD1 activity by 50% was calculated by PRISM2.01 (Graphpad Software).

| Structure (SMILES) | IC50 |
| --- | --- |
| CC1(O)CCC(N2CCC(Cc3c(Cl)cccc3Cl)C2=O)CC1 (single isomer, unassigned) [Example 38A, 3-(2,6-dichlorobenzyl)-1-(4-hydroxy-4-methylcyclohexyl)pyrrolidin-2-one] | 26 nM |
| COc1ccccc1CC1CCN(C2CCc3ccccc32)C1=O (single isomer, unassigned) [Example 66A, 1-(2,3-dihydro-1H-inden-1-yl)-3-(2-methoxybenzyl)pyrrolidin-2-one] | 56 nM |
| CC1(O)CCC(N2CCC(Cc3ccc(Cl)cc3Cl)C2=O)CC1 (single isomer, unassigned) [Example 412A, 3-(2,4-dichlorobenzyl)-1-(4-hydroxy-4-methylcyclohexyl)pyrrolidin-2-one] | 430 nM |
| CC1(O)CCC(N2CCC(Cc3ccc(Cl)cc3Cl)C2=O)CC1 (single isomer, unassigned) [Example 413A, 3-(2,4-dichlorobenzyl)-1-(4-hydroxy-4-methylcyclohexyl)pyrrolidin-2-one] | 29 nM |
| CC1(O)CCC(N2CCC(Cc3ccc(OCC(=O)NCc4ccc(C(F)(F)F)cc4)cc3Cl)C2=O)CC1 (single isomer, unassigned) [Example 602A, 2-(3-chloro-4-{[1-(4-hydroxy-4-methylcyclohexyl)-2-oxopyrrolidin-3-yl]methyl}phenoxy)-N-[4-(trifluoromethyl)benzyl]acetamide] | 26 nM |
| CC1(O)CCC(N2CCC(Cc3ccc(OCC(=O)NCc4ccc(C(F)(F)F)cc4)cc3Cl)C2=O)CC1 (single isomer, unassigned) [Example 603A, 2-(3-chloro-4-{[1-(4-hydroxy-4-methylcyclohexyl)-2-oxopyrrolidin-3-yl]methyl}phenoxy)-N-[4-(trifluoromethyl)benzyl]acetamide] | 98 nM |
| Cc1ccccc1CN1CCCN(Cc2c(Cl)cccc2Cl)C1=O [Example 2D, 1-(2,6-dichlorobenzyl)-3-(2-methylbenzyl)tetrahydropyrimidin-2(1H)-one] | 130 nM |
| Cc1ccccc1CN1CCCC(Cc2c(Cl)cccc2Cl)C1=O (stereo not shown) [Example 5C, 3-(2,6-dichlorobenzyl)-1-(2-methylbenzyl)piperidin-2-one] | 110 nM |
| O=C1C(Cc2c(Cl)cccc2Cl)CCN1C1CCCCC1 (stereo not shown) [Example 9A, 1-cyclohexyl-3-(2,6-dichlorobenzyl)pyrrolidin-2-one] | 7.9 nM |
| Cc1ccccc1CN1C(=O)N(Cc2c(Cl)cccc2Cl)CC1(C)O (stereo not shown) [Example 32B, 1-(2,6-dichlorobenzyl)-4-hydroxy-4-methyl-3-(2-methylbenzyl)imidazolidin-2-one] | 53 nM |
| CN(Cc1c(Cl)cccc1Cl)C1CCN(C2CCCCC2)C1=O (stereo not shown) [Example 94A, 1-cyclohexyl-3-[N-(2,6-dichlorobenzyl)N-methylamino]pyrrolidin-2-one] | 85 nM |
| O=C(Nc1ccc(CO)cc1)Nc1ccc(CC2CCN(C3C4CC5CC3CC(O)(C5)C4)C2=O)c(Cl)c1 (stereo not shown) [Example 468A, N-(3-chloro-4-{[1-(5-hydroxy-2-adamantyl)-2-oxopyrrolidin-3-yl]methyl}phenyl)-N′-[4-(hydroxymethyl)phenyl]urea] | 19 nM |
| CS(=O)(=O)Nc1cccc(-c2ccc(CC3CCN(C4C5CC6CC4CC(O)(C6)C5)C3=O)c(Cl)c2)c1 (stereo not shown) [Example 470A, N-(3′-chloro-4′-{[1-(5-hydroxy-2-adamantyl)-2-oxopyrrolidin-3-yl]methyl}biphenyl-3-yl)methanesulfonamide] | 37 nM |
| O=C1N(Cc2ccc(C(F)(F)F)cc2)CCN1c1ccc(CC2CCN(C3C4CC5CC3CC(O)(C5)C4)C2=O)c(Cl)c1 (stereo not shown) [Example 510A, 1-(3-chloro-4-{[1-(5-hydroxy-2-adamantyl)-2-oxopyrrolidin-3-yl]methyl}phenyl)-3-[4-(trifluoromethyl)benzyl]imidazolidin-2-one] | 9.9 nM |
| CC1(O)CCC(N2CCC(Cc3ccc(OCc4nc(-c5ccc(F)cc5)no4)cc3Cl)C2=O)CC1 (stereo not shown) [Example 619A, 3-(2-chloro-4-{[3-(4-fluorophenyl)-1,2,4-oxadiazol-5-yl]methoxy}benzyl)-1-(4-hydroxy-4-methylcyclohexyl)pyrrolidin-2-one] | 46 nM |
| CC1(O)CCC(N2CCC(Cc3ccc(-c4cccc(CO)c4)cc3Cl)C2=O)CC1 (stereo not shown) [Example 654A, 3-{[3-chloro-3′-(hydroxymethyl)biphenyl-4-yl]methyl}-1-(4-hydroxy-4-methylcyclohexyl)pyrrolidin-2-one] | 150 nM |
